The text below walks through data of patent US20230331781A1, “PAR4 DERIVED PEPTIDES, ANALOGS AND USES THEREOF” (Yissum Research Development Company of the Hebrew …, priority 2019, published 2023).

“Also recorded” adds a separate entry of the source. Numbered stars: 1 amine (or outer) side, 2 acyl side, 3 side chain; on linkers, the order of the positions; unused ones are H or OH. Bridge positions count the residues as written; N and C are the ends. Square brackets hold non-standard residues; d marks the D form. Ends that are not written are not given here. GlyBU(C4) = Gly building unit (N-alpha-functionalized Gly) carrying a C4 alkyl chain (n = m = 4), bridged through a urea group; CO = O=C([*:1])[*:2]

One test deals with Lovo colon cancer cells. In words: Matrigel invasion of Lovo colon cancer cells after AYPGKF PAR4 activation. The format is cell-based. Particulars: PAR4 activated Lovo cells, 50 nM-150 μM, FIGS. 8B and 8C. On the procedure: HEK293 cells were transiently transfected with flg-Par4 followed by AYPGKF PAR4 activation in the presence and absence of PAR4c (4-4) within the range of 50 nM-150 μM. IP of cell lysates following different periods of activation was carried out using anti flg abs. Detection of Akt was performed by anti Akt abs. β-actin serves as a control gene for loading. […] Matrigel invasion before and after AYPGKF PAR4 activation and in the presence and absence of PAR4 c(4-4) inhibitor in the activated PAR4 cells. A range between 50 nM-150 μM PAR4 c(4-4) inhibitor was applied. While ample Matrigel invasion is seen following PAR4 activation, this was attenuated in the presence of the inhibitor in all the concentrations used, similar to control prior to PAR4 activation. FIG. 8C—Histograms represent quantification of the cells/HPF invaded the Matrigel layer. Unpaired Student's t test was used. This experiment is a representative of three independent experiments performed in triplicates. FIG. 8D-8K show Wound-scratch migration assay. Lovo cancer cell-line was grown to confluence. Then, an equal wound scratch was introduced to Lovo cell monolayers. […]
When we analyzed the impact of Pc(4-4) on the capability of activated PAR4 in Lovo colon cancer cell line to invade Matrigel, a robust invasion is seen (FIG. 8B), inhibited in the presence of Pc(4-4). […]

The subject of another test is RKO/hPar4 tumors. In words: Pre-formed RKO/hPar4 tumors in nude mice. It is filed as in vivo. Particulars: injection s.c. near tumor started 3 weeks post inoculation (~1 cm tumors), 5 mg/kg. As for the experimental part:
Tumors generated by the RKO/Par4 clone/s (1×10^6 cells, subcutaneously). Injections of the inhibitor Pc(4-4) have started 3 weeks post cell inoculation (5 mg/kg, every other day). FIG. 12B—levels of Par4 in stable clone/s of RKO cells. Error bars show s.d.; *** P<0.001. FIG. 12C—pre-formed tumors. Mice bearing tumors formed (˜1 cm) prior to the Pc(4-4) injection. FIG. 12D tumor volume (cm3). Tumors generated throughout the experimental period versus injections of Pc(4-4) initiated 3 weeks post cell inoculation. Each treatment group contained 7 mice. This is a representative of three times performed experiments. Error bars show s.d.; ** P<0.01.
In this experimental design, RKO/hPar4 clone/s (1×10^6 cells) were implanted in nude mice (Par4 levels in the clones) (FIG. 12A-12D). Tumors were slowly formed (during 3 weeks). At the time tumors were distinctly observed (˜1 cm length, FIG. 12C), the Pc(4-4) inhibitor was injected s.c. in the vicinity of the tumor site (3×week; 5 mg/kg). At the time the experiment was terminated large RKO/hPar4 tumors were observed. […] Activation of PAR4 leads to the phosphorylation of EGFR. AYPGKF activation of PAR4 leads to pTyr-EGFR. This was shown by co-transfection of HEK293 cells with hPar4 and egfr followed by AYPGKF PAR4 activation. Western blot detection of EGFR Tyr (Y)-phosphorylation (pY-EGFR), was carried-out by anti phospho-Tyr antibodies (FIG. 13A). […]

The next test has as its target T1, PAR4-Akt association (Homo sapiens, UniProt P31749).
T1 construct: FLAG; expressed in transfected cells
In words: PAR4-Akt association, immunoprecipitation in HEK293 cells transfected with flg-Par4 and AYPGKF activated. It is filed as cell-based. Particulars: HEK293 cells, 50 nM-150 μM, FIG. 8A. As for the experimental part:
Experiments shown in FIG. 3A-3C were carried out in MDA-MB-231 cells. […] Unpaired Student's t test was used. This experiment is a representative of three independent experiments performed in triplicates. […] HEK 293T cells were transfected with wt flg-Par4 followed by AYPGKF activation of PAR4. IP was performed using anti fig abs of cells treated or not with CTP4-A peptide and immunoblotting with anti-Akt abs.
FIG. 4A—PH-Akt module alone binds PAR4-C-tail but not mutant R25C. HEK 293 cells were transiently transfected with flg-Par4 construct and either with GFP-PH-Akt domain alone or GFP-R25C. IP of cell lysates following PAR4 AYPGKF activation was carried out using anti-flg abs. Detection of either Akt-PH domain alone associated with PAR4 was performed with anti-GFP. […] FIG. 4C—The PI3K inhibitor […] inhibits the binding of Akt to PAR4. Treatment of HEK 293 cells with LY294002 for various time points or not, following transient transfection with flg-Par4 and AYPGKF activation was performed. Cell lysates were immunoprecipitated with anti-flg antibodies, and anti-Akt was used to assess the association of Akt with the PAR4 C-tail. […] Amino acid residues of PAR4- and PAR2-PH binding motifs. FIG. 4E—mutations inserted into flg-Par4 generated flg-Par4MutE346A. HEK293 cells were transiently transfected with either wt flg-Par4 or flg-Par4MutE346A. IP of cell lysates following PAR4 activation was carried out using anti-flg abs. Detection of PAR4-Akt association was performed by anti Akt Abs. While association with wt Par4 is seen after 5 and 10 min AYPGKF PAR4 activation, when using flg-Par4 E346A no inhibition is seen and effective association with Akt is seen at 30 min activation. FIG. 4F—utations inserted into flg-Par4 generated flg-Par4Mut F347A and flg-Par4Mut D349A. HEK293 cells were transiently transfected with either wt flg-Par4 or flg-Par4Mut F347A or flg-Par4Mut D349A. IP of cell lysates following PAR4 activation was carried out using anti-f/g abs. Detection of PAR4-Akt association was performed by anti Akt Abs. While association with wt Par4 is seen after 5 min AYPGKF PAR4 activation, no such binding is obtained when using either flg-Par4 F347A or flg-Par4D349A.
HEK293 cells were transiently transfected with flg-Par4 followed by AYPGKF PAR4 activation in the presence and absence of PAR4c (4-4) within the range of 50 nM-150 μM. IP of cell lysates following different periods of activation was carried out using anti flg abs. Detection of Akt was performed by anti Akt abs. β-actin serves as a control gene for loading. […] Matrigel invasion before and after AYPGKF PAR4 activation and in the presence and absence of PAR4 c(4-4) inhibitor in the activated PAR4 cells. […] FIG. 8C—Histograms represent quantification of the cells/HPF invaded the Matrigel layer. […]

T1 sequence (P31749 whole entry): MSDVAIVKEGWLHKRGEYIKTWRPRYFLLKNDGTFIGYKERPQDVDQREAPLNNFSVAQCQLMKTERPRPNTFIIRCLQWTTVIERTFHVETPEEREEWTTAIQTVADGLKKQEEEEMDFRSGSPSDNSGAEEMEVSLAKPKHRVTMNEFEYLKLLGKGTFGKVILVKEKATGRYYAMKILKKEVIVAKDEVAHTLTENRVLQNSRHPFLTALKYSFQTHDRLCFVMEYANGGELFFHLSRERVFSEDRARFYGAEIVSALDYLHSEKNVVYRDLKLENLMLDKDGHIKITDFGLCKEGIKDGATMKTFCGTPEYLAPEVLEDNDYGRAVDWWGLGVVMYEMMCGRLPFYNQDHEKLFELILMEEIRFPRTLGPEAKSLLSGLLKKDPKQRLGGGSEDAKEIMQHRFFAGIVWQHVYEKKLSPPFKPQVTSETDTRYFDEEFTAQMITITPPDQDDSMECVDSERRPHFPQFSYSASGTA

Consider “Pc(4-4): backbone cyclic analog of Formula I, m=n=4, ring size 30 atoms (S[GlyBU(C4)]EFRDK[GlyBU(C4)]; bridge 2-8 via CO; not fully specified; printed as SZ1EFRDKX3)”, for which the “inhibition of Matrigel invasion” value with Lovo colon cancer cells is given as “inhibited”; with Lovo colon cancer cells (listed as PAR4 c(4-4)) it was “inhibits; also recorded: attenuated”. Besides, in the test with RKO/hPar4 tumors, the “size of pre-formed tumors” value was “distinctly smaller tumors; also recorded: inhibits”. Further, the “inhibition of Akt/PKB-PAR4 association (IP)” value with PAR4-Akt association was “strong inhibition”; in the test with PAR4-Akt association (listed as PAR4 c(4-4)), “inhibits”.
